Measured values from patent USRE40033E1, “Process for preparing 2-methyl-thieno-benzodiazepine” (Eli Lilly and Company, priority 1991, dated 2008).

Tests used:
[1] = tested on: patients; settings: cited from earlier work
[2] = tested on: dogs; test: Dog toxicity studies, cholesterol levels; type: in vivo; settings: dosage of 8 mg/kg stated for the 2-ethyl compound
[3] = tested on: psychiatric patients suffering from schizophrenia; test: Clinical trial of flumezapine in psychiatric patients suffering from schizophrenia; type: in vivo, human
Text: The lead compound from this group, flumezapine, (7-fluoro-2-methyl-10-(4-methyl-1-piperazinyl)-4H-thieno[2,3-b][1,5]-benzodiazepine), was developed to the stage of being clinically administered to psychiatric patients suffering from schizophrenia. A total of 17 patients received treatment with flumezapine before the clinical trial was terminated after consultation with the U.S. Food and Drug Administration, because of an unacceptably high incidence of raised enzyme levels in the treated patients. […] In respect of its tendency to raise liver enzyme levels, flumezapine is similar to chlorpromazine, an antipsychotic which has long been in use but whose safety has been called into question.

[4] = tested on: rats; test: Conditioned avoidance response; type: in vivo; settings: Rattus norvegicus, read-out: ED50, inhibition of conditioned avoidance response
[5] = Studies using radiolabelled compound, saliva residues; type: in vivo
Protocol: For example, in the treatment of adult humans, dosages of from 0.25 to 30 mg, preferably from 1 to 20 mg, per day may be used. A once a day dosage is normally sufficient, although divided doses may be administered. For treatment of psychotic disorders a dose range of from 1 to 20 mg, preferably 2.5 to 15 mg per day is suitable, whereas for mild anxiety states a lower dosage range, such as from 0.25 to 5 mg, preferably 1 to 5 mg, may be more appropriate. In choosing a suitable regimen for patients suffering from psychotic illness it may frequently be necessary to begin with a dosage of from 1 to 20 mg per day and when the illness is under control to reduce to a dosage as low as 1 mg per day.

[6] = tested on: mice; test: Apomorphine-induced climbing behaviour; type: in vivo
[7] = biological target: T1, 5-HT-1C receptor (Homo sapiens, UniProt P28335); test: Activity at the 5-HT-1C receptor; type: binding
T1 sequence (P28335 33-458): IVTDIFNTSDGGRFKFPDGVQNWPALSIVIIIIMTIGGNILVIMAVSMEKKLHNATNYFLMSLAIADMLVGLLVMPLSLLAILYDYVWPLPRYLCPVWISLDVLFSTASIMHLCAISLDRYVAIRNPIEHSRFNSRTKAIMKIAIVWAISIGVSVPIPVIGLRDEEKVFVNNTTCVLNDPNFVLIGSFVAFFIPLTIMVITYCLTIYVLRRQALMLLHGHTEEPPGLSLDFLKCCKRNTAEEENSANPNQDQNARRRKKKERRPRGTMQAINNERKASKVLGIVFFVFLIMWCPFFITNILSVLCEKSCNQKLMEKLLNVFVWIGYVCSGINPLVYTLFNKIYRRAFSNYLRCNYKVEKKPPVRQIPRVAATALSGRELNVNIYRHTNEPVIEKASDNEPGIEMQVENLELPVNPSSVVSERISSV

[8] = tested on: noradrenergic α-receptors; test: Pharmacological tests, noradrenergic α-receptors
Text: These properties indicate that the compound is a potential neuroleptic with relaxant, anxiolytic and anti-emetic properties, and may be useful in treating psychotic conditions such as, but not limited to, schizophrenia, schizophreniform diseases and mania. At lower doses the compound is indicated for use in the treatment of mild anxiety states.

[9] = tested on: D-1 and D-2 receptors; test: Prevention of EEDQ disruption of the apomorphine-induced climbing response; type: in vivo; settings: 24 hour pretreatment with EEDQ
[10] = tested on: patients; settings: compared with flumezapine
[11] = tested on: mice; test: Apomorphine-induced hypothermia; type: in vivo
[12] = tested on: rats; test: Multiple conflict schedule (Geller and Seifter); type: in vivo; settings: dosed orally 60 minutes before testing
Text: Moore, Nicholas A. et al., The Journal of Pharmacology and Experimental Therapeutics. 545-551, 262:2 (1992). The test measures characteristic changes in rates of responding associated with anxiolytic agents. The conflict procedure results are indicative of favorable anxiolytic activity.
The conflict procedure used was based on the method of Geller and Seifter, Psychopharmacologia 1: 482-492, (1960). Rats were trained on a multiple schedule consisting of three components. Individual components were as follows: 1) for 9 minutes, lever pressing was reinforced on a variable interval 30 second schedule (VI 30, reward). This period was signaled by illumination of the houselight alone. 2) During the following 3-minute period, lever presses were recorded but had no programmed consequence (time-out). 3) Lever pressing was reinforced according to a fixed ratio 10 second food presentation (FR10) for 3 minutes; however, each reinforced response was accompanied by an electric current (0.5 mA) being applied to the grid floor for 500 msec (conflict). This component was signaled by illumination of the houselight and three cue lights on the front panel. This sequence of three components (reward/time-out/conflict) was presented twice in the same order during the daily 30 minute session.
After the training procedure, drug testing was initiated. […]

For `O=C(CCCN1CCC(O)(c2ccc(Cl)cc2)CC1)c1ccc(F)cc1` [haloperidol], the “reported clinical side effects” value [1] is listed as “high incidence of extrapyramidal symptoms”.
For `CCc1cc2c(s1)Nc1ccccc1N=C2N1CCN(C)CC1` [2-ethyl-4-(4-methyl-1-piperazinyl)-10H-thieno[2,3-b][1,5]benzodiazepine, reference compound], the “rise in cholesterol levels” value [2] was “four out of eight dogs showed a significant rise in cholesterol levels”.
For `Cc1cc2c(s1)Nc1ccc(F)cc1N=C2N1CCN(C)CC1` [flumezapine, 7-fluoro-2-methyl-10-(4-methyl-1-piperazinyl)-4H-thieno[2,3-b][1,5]-benzodiazepine], the “enzyme levels CPK, SGOT and SGPT in blood samples” value ([3]; 17 patients treated, trial terminated) was “in substantial excess of normal values” and the “emergence of extrapyramidal side effects as measured on the AIMS scale” value ([3]; clinical trials) was “two of the patients showed the emergence of extrapyramidal side effects”.
In the case of `CN1CCN(C2=Nc3cc(Cl)ccc3Nc3ccccc32)CC1` [clozapine], the “reported clinical side effects” value [1] is given as “cause agranulocytosis in some patients”.
In the case of `Cc1cc2c(s1)Nc1ccccc1N=C2N1CCN(C)CC1`, the ED50 [4] is reported as 4 to 7 mg/kg, the residues in saliva [5] is reported as “residues have been detected in the saliva” and the “rise in cholesterol levels” value [2] is reported as “did not show any rise in cholesterol levels”. For the same compound, the “dose antagonizing apomorphine-induced climbing behaviour” value [6] was “less than 10 mg/kg”, the “activity at the 5-HT-1C receptor” value [7] was “active” and the “activity at noradrenergic α-receptors” value [8] was “antagonist activity”. The “active dose, prevention of disruption of climbing response by EEDQ” value [9] was “less than 10 mg/kg”, the “plasma levels of creatinine phosphokinase (CPK)” value [10] was “lower than with flumezapine” and the “dose antagonizing apomorphine-induced hypothermia” value [11] was “less than 10 mg/kg”. The “active dose in multiple conflict schedule” value [12] was “less than 5 mg/kg”.
